Test results as given in patent US5210193A, “Piperazine derivatives” (American Cyanamid Company, priority 1990, dated 1993).
Converted amounts (≈) assume the structure as drawn.

Key:
Assay in all cases: in vitro antibacterial MIC, agar plate dilution
Format in all cases: cell-based
[1] = system: Escherichia coli CMC 84-11; settings: Escherichia coli, CMC8411, 18 h, 35° C., read-out: MIC
Procedure, shortened: (§1)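 Read-out is visible growth inhibition on Mueller-Hinton agar dilution plates incubated 18 hours at 35° C after inoculation of ~10^4 CFU (Steers device), with MIC reported in mcg/ml.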

[2] = system: Acinetobacter calcoaceticus MOR 84-43; settings: MOR8443, 18 hours, 35° C., read-out: MIC
Procedure, shortened: as §1

[3] = system: Klebsiella pneumoniae MOR 84-4; settings: Klebsiella pneumoniae, MOR844, 18 h, 35° C., read-out: MIC
Procedure, shortened: as §1

[4] = system: Proteus rettgeri CMC 84-41; settings: Providencia rettgeri, CMC8441, 18 h, 35° C., read-out: MIC
Procedure, shortened: as §1

[5] = system: Morganella morganii VGH 84-11; settings: VGH8411, 18 hours, 35° C., read-out: MIC
Procedure, shortened: as §1

[6] = system: Escherichia coli CMC 84-16; settings: Escherichia coli, CMC8416, 18 h, 35° C., read-out: MIC
Procedure, shortened: as §1

[7] = system: Escherichia coli NAR 311; settings: NAR311, 18 hours, 35° C., read-out: MIC
Procedure, shortened: as §1

[8] = system: Klebsiella oxytoca MOR 84-28; settings: MOR8428, 18 hours, 35° C.
Procedure, shortened: as §1

[9] = system: Staphylococcus aureus CMC 83-128; settings: CMC83128, 18 hours, 35° C., read-out: MIC
Procedure, shortened: as §1

[10] = system: Serratia marcescens K 84-18; settings: Serratia marcescens, K8418, 18 h, 35° C., read-out: MIC
Procedure, shortened: as §1

[11] = system: Staphylococcus epidermidis CMC 83-135; settings: CMC83135, 18 hours, 35° C., read-out: MIC
Procedure, shortened: as §1

[12] = system: Serratia marcescens F 0-35; settings: Serratia marcescens, F035, 18 h, 35° C., read-out: MIC
Procedure, shortened: as §1

[13] = system: Staphylococcus aureus Smith; settings: Staphylococcus aureus, 18 h, 35° C., read-out: MIC
Procedure, shortened: as §1

[14] = system: Enterobacter cloacae K 84-10; settings: Enterobacter cloacae, K8410, 18 h, 35° C., read-out: MIC
Procedure, shortened: as §1

[15] = system: Morganella morganii CMC 84-37; settings: Morganella morganii, CMC8437, 18 h, 35° C., read-out: MIC
Procedure, shortened: as §1

[16] = system: Escherichia coli ATCC 25922; settings: Escherichia coli, ATCC25922, 18 h, 35° C., read-out: MIC
Procedure, shortened: as §1

[17] = system: Enterobacter cloacae VGH 84-37; settings: Enterobacter cloacae, VGH8437, 18 h, 35° C., read-out: MIC
Procedure, shortened: as §1

[18] = system: Pseudomonas aeruginosa LL-1244; settings: Pseudomonas aeruginosa, LL1244, 18 h, 35° C., read-out: MIC
Procedure, shortened: as §1

[19] = system: Enterobacter aerogenes VGH 84-36; settings: Klebsiella aerogenes, VGH8436, 18 hours, 35° C., read-out: MIC
Procedure, shortened: as §1

[20] = system: Escherichia coli PRNT 311; settings: PRNT311, 18 hours, 35° C., read-out: MIC
Procedure, shortened: as §1

[21] = system: Streptococcus faecalis ATTC 29212; settings: Enterococcus faecalis, ATTC29212, 18 hours, 35° C., read-out: MIC
Procedure, shortened: as §1

[22] = system: Staphylococcus aureus ATTC 29213; settings: Staphylococcus aureus, ATTC29213, 18 h, 35° C., read-out: MIC
Procedure, shortened: as §1

[23] = system: Klebsiella pneumoniae AD; settings: Klebsiella pneumoniae, 18 h, 35° C., read-out: MIC
Procedure, shortened: as §1

[24] = system: Staphylococcus epidermidis VGH 84-40; settings: VGH8440, 18 hours, 35° C., read-out: MIC
Procedure, shortened: as §1

[25] = system: Streptococcus faecalis VGH 84-65; settings: Enterococcus faecalis, VGH8465, 18 h, 35° C., read-out: MIC
Procedure, shortened: as §1

[26] = system: Staphylococcus Spp saprophiticus VGH 84-50; settings: 18 hours, 35° C., read-out: MIC
Procedure, shortened: as §1

[27] = system: Staphylococcus epidermidis IO 83-58; settings: IO8358, 18 hours, 35° C., read-out: MIC
Procedure, shortened: as §1

[28] = system: Staphylococcus aureus CMC 83-127; settings: Staphylococcus aureus, CMC83127, 18 h, 35° C., read-out: MIC
Procedure, shortened: as §1

[29] = system: Staphylococcus aureus VGH 84-46; settings: Staphylococcus aureus, VGH8446, 18 h, 35° C., read-out: MIC
Procedure, shortened: as §1

[30] = system: Staphylococcus aureus VGH 84-45; settings: Staphylococcus aureus, VGH8445, 18 h, 35° C., read-out: MIC
Procedure, shortened: as §1

[31] = system: Pseudomonas aeruginosa VGH 84-4; settings: Pseudomonas aeruginosa, VGH844, 18 h, 35° C., read-out: MIC
Procedure, shortened: as §1

Row | MIC [1] [µg/mL] | MIC [2] [µg/mL] | MIC [3] [µg/mL] | MIC [4] [µg/mL] | MIC [5] [µg/mL] | MIC [6] [µg/mL] | MIC [7] [µg/mL] | MIC [8] [µg/mL] | MIC [9] [µg/mL] | MIC [10] [µg/mL] | MIC [11] [µg/mL] | MIC [12] [µg/mL] | MIC [13] [µg/mL] | MIC [14] [µg/mL] | MIC [15] [µg/mL] | MIC [16] [µg/mL] | MIC [17] [µg/mL] | MIC [18] [µg/mL] | MIC [19] [µg/mL] | MIC [20] [µg/mL] | SMILES | further results
1 | 1 (≈ 2.41 µM) | 8 (≈ 19.3 µM) | 2 (≈ 4.81 µM) | 1 (≈ 2.41 µM) | 1 (≈ 2.41 µM) | 0.5 (≈ 1.2 µM) | 16 (≈ 38.5 µM) | 1 (≈ 2.41 µM) | 0.25 (≈ 0.602 µM) | 2 (≈ 4.81 µM) | 0.5 (≈ 1.2 µM) | 2 (≈ 4.81 µM) | 0.5 (≈ 1.2 µM) | 1 (≈ 2.41 µM) | 0.5 (≈ 1.2 µM) | 1 (≈ 2.41 µM) | 1 (≈ 2.41 µM) | 64 (≈ 154 µM) | 1 (≈ 2.41 µM) | 2 (≈ 4.81 µM) | CCn1cc(C(=O)O)c(=O)c2cc(F)c(N3CCNC(c4ccc(C)s4)C3)cc21 (stereo not drawn) [Example 37, 1-Ethyl-6-fluoro-1,4-dihydro-7-[3-(5-methyl-2-thienyl)-1-piperazinyl]-4-oxo-3-quinolinecarboxylic acid] | MIC [21]: 4 µg/mL (≈ 9.63 µM); MIC [22]: 0.5 µg/mL (≈ 1.2 µM); MIC [23]: 2 µg/mL (≈ 4.81 µM); MIC [24]: 0.25 µg/mL (≈ 0.602 µM); MIC [25]: 4 µg/mL (≈ 9.63 µM); MIC [26]: 2 µg/mL (≈ 4.81 µM); MIC [27]: 0.5 µg/mL (≈ 1.2 µM); MIC [28]: 0.12 µg/mL (≈ 0.289 µM); MIC [29]: 0.5 µg/mL (≈ 1.2 µM); MIC [30]: 0.12 µg/mL (≈ 0.289 µM); MIC [31]: 16 µg/mL (≈ 38.5 µM)
2 | > 256 | > 256 | > 256 | > 256 | > 256 | > 256 | > 256 | > 256 | 16 (≈ 33.1 µM) | > 256 | 64 (≈ 132 µM) | > 256 | 16 (≈ 33.1 µM) | > 256 | > 256 | > 256 | > 256 | > 256 | > 256 | > 256 | CCn1cc(C(=O)O)c(=O)c2cc(F)c(N3CCN(C)C(c4cc5cc(Cl)ccc5o4)C3)cc21 (stereo not drawn) [Example 55, 7-[3-(5-Chloro-2-benzofuranyl)-4-methyl-1-piperazinyl]-1-ethyl-6-fluoro-1,4-dihydro-4-oxo-3-quinolinecarboxylic acid] | MIC [21]: > 256 µg/mL; MIC [22]: 64 µg/mL (≈ 132 µM); MIC [23]: > 256 µg/mL; MIC [24]: 32 µg/mL (≈ 66.1 µM); MIC [25]: > 256 µg/mL; MIC [26]: > 256 µg/mL; MIC [27]: 128 µg/mL (≈ 265 µM); MIC [28]: 8 µg/mL (≈ 16.5 µM); MIC [29]: 32 µg/mL (≈ 66.1 µM); MIC [30]: 16 µg/mL (≈ 33.1 µM); MIC [31]: > 256 µg/mL
3 | > 256 | > 256 | > 256 | > 256 | > 256 | > 256 | > 256 | > 256 | 64 (≈ 133 µM) | > 256 | > 256 | > 256 | 64 (≈ 133 µM) | > 256 | > 256 | > 256 | > 256 | > 256 | > 256 | > 256 | CCn1cc(C(=O)O)c(=O)c2cc(F)c(N3CCN(C)C(c4sc5ccccc5c4C)C3)cc21 (stereo not drawn) [Example 54, 1-Ethyl-6-fluoro-1,4-dihydro-7-[4-methyl-3-(3-methyl-benzo[b]thien-2-yl)-1-oiperazinyl]-4-oxo-3-quinolinecarboxylic acid] | MIC [21]: > 256 µg/mL; MIC [22]: 256 µg/mL (≈ 534 µM); MIC [23]: > 256 µg/mL; MIC [24]: > 256 µg/mL; MIC [25]: > 256 µg/mL; MIC [26]: > 256 µg/mL; MIC [27]: > 256 µg/mL; MIC [28]: 32 µg/mL (≈ 66.7 µM); MIC [29]: > 256 µg/mL; MIC [30]: 256 µg/mL (≈ 534 µM); MIC [31]: > 256 µg/mL
